Converted amounts (≈) assume the structure as drawn. “Also recorded” adds a separate entry of the source. Like-named read-outs stand apart in the source and are kept apart here.

Data on 3 compounds can be found in US4368203A, “Antibiotics and derivatives thereof having β-lactamase inhibitory activity and production thereof” (priority 1977, dated 1983).

Data set [1] concerns Alcaligenes faecalis B-326. The data set is described as follows: MIC, broth dilution method. In kind it is cell-based. The note with it: Alcaligenes faecalis, B326, 20 h, read-out: Minimum inhibitory concentration. As to the method:
(§1) Sodium salt of the antibiotic PS-7 was dissolved and diluted with the BRAIN HEART INFUSION BROTH "Eiken" at a concentration between 5 μg/ml and 100 μg/ml. The solution was further diluted with the same medium to obtain a series of geometric concentrations. To the serial dilutions were added the seed cultures prepared by shaking culture of various test microorganisms shown in Tab. 5 in the BRAIN HEART INFUSION GROTH at 28° C. for 18 hours, the final cell count being about 1×10^5 /ml. […] The lowest concentration at which no cell growth was observed was the minimum inhibitory concentration of the antibiotic PS-7 on the test microorganism. […] . The minimum inhibitory concentrations on test strains were determined in the same manner as mentioned above. […] For the comparison, the results on the known antibiotics Cephazolin and Cefoxitin are also given in the same table.
In general terms: In broth dilution the organism is exposed to a series of concentrations in liquid medium.

Data set [2] concerns Citrobacter freundii E-9. The data set is described as follows: MIC, broth dilution method. The class given is cell-based. The note with it: Citrobacter freundii, E9, 20 h, lactamase producing organism, read-out: Minimum inhibitory concentration. The protocol:
as §1

Data set [3] deals with Diplococcus pneumoniae Type III. The experiment in a line: MIC, broth dilution method. In kind it is cell-based. The note with it: Streptococcus pneumoniae, 20 h, 10% of horse blood in the medium, read-out: Minimum inhibitory concentration. As to the method: as §1
Data set [4] has as its system Staphylococcus aureus FDA 209P. The experiment in a line: MIC, broth dilution method. The class given is cell-based. The note with it: FDA209P, 20 h, final methanol not above 10%, read-out: Minimum inhibitory concentration. The protocol: as §1
The subject of data set [5] is Enterobacter cloacae E-16. The experiment in a line: MIC, broth dilution method. In kind it is cell-based. Particulars: Enterobacter cloacae, E16, 20 h, lactamase producing organism, read-out: Minimum inhibitory concentration. As to the method: Sodium salt of the antibiotic PS-7 was dissolved and diluted with the BRAIN HEART INFUSION BROTH "Eiken" at a concentration between 5 μg/ml and 100 μg/ml. The solution was further diluted with the same medium to obtain a series of geometric concentrations. To the serial dilutions were added the seed cultures prepared by shaking culture of various test microorganisms shown in Tab. 5 in the BRAIN HEART INFUSION GROTH at 28° C. for 18 hours, the final cell count being about 1×10^5 /ml. […] The lowest concentration at which no cell growth was observed was the minimum inhibitory concentration of the antibiotic PS-7 on the test microorganism. […] The minimum inhibitory concentrations on test strains were determined in the same manner as mentioned above.

The test system of data set [6] is Staphylococcus aureus Smith. The experiment in a line: In vivo activity in intraperitoneally infected mice. On the set-up: species or system DDY male mice. The note with it: for ED50: Staphylococcus aureus, sc, mice infected i.p. with 5×10^5 cells/mouse, subcutaneous injection just after infection, read-out: 50% curative dose (CD50); for Therapeutic effect in infected mice: mice infected with pathogenic Gram-positive bacteria. As to the method:
Soon after infection, an aqueous solution of the antibiotic PS-5 sodium salt preparation was subcutaneously injected.
Activity of the antibiotic PS-7 obtained above was determined using mice infected with Staphylococcus aureus Smith at 5×10^5 cells a mouse intraperitoneally. Sodium salt of the antibiotic PS-7 was administered to the mice subcutaneously immediately after the infection.
The tritylation product of antibiotic PS-6 was subcutaneously injected just after infection. The 50% curative dose on male DDY mice (SHIZUOKA) was 5.5 mg/kg.
The tritylation product of antibiotic PS-7 was subcutaneously injected just after infection. The 50% curative dose on make DDY mice (SHIZUOKA) was 4.5 mg/kg.

Data set [7] in a line: Acute toxicity, intraperitoneal administration. Particulars: mice, 500 mg/kg. In kind it is in vivo, DDY male mice.
Data set [8] is described as follows: Solubility. In kind it is physicochemical. The note with it: 5 mg in 0.1 ml of solvent, shaking, 20° C.; for Solubility in organic solvents: solvents named in the value. The source says:
The results are as shown as below:
The results are as shown below:

A short description of data set [9]: Stability (general statements). In kind it is physicochemical. The note with it: general statement.
Data set [10] relates to Gram-positive and Gram-negative bacteria. The experiment in a line: Antibiotic spectra (summary in words). In kind it is cell-based. Particulars: for Antibiotic activity against Gram-negative bacteria resistant to β-lactam antibiotics: genera Citrobacter, Proteus, Klebsiella, Enterobacter, Serratia as named at the place; for Antibiotic activity against Gram-positive bacteria: genera Staphylococcus, Diplococcus, Streptococcus, Bacillus as named at the place.

For data set [11], the system named is Streptococcus pyogenes NY-5. The data set is described as follows: MIC, broth dilution method. Particulars: Streptococcus pyogenes, NY5, 20 h, read-out: Minimum inhibitory concentration.
Data set [12] deals with Klebsiella pneumoniae K-2. The experiment in a line: MIC, broth dilution method. Particulars: Klebsiella pneumoniae, K2, 20 h, read-out: Minimum inhibitory concentration.
Data set [13] relates to Proteus vulgaris P-5. The data set is described as follows: MIC, broth dilution method. The note with it: Proteus vulgaris, P5, 20 h, read-out: Minimum inhibitory concentration.
The subject of data set [14] is Proteus vulgaris P-5. The experiment in a line: Potentiating and synergistic effect, pulp disc inhibition zone on agar plate. The class given is cell-based. As to the method:
(§2) 10 ml of 2.5 folds diluted nutrient agar (pH 7.0) containing 50 μg/ml of penicillin G or cephaloridine was seeded with the β-lactamase producing and β-lactam-resistant microorganisms and poured in a 9 cm Petri dish to provide the bio-assay agar plate. […] A control assay plate was similarly prepared without penicillin G or cephaloridine. As reference antibiotics, 10,000 μg/ml of penicillin G or 20 μl of cephaloridine were disc-assayed under the same conditions.
(§3) Cepholoridine was added to a 2.5-times diluted nutrient agar, pH 7.0 and the medium was inoculated with a β-lactam-producing strain that produceds β-lactamase. Ten ml of the medium was spread and solidified in a petri dish of 9 cm in diameter to prepare an assay plate. […] Each 20 μl of the solution and its 2- and 4-times diluted solutions was soaked in a pulp disc of 8 mm in diameter. To the surface of the above nutrient agar was placed the pulp disc and the size of the growth inhibitory zone around the disc was examined after incubation at 35° C. for 18 hours. […] In addition, for the comparison, a similar experiment was also performed with a pulp disk soaked with 20 μl of 10,000 μg/ml Penicillin G or Cepholoridine solution in place of the antibiotic PS-7.

The test system of data set [15] is Citrobacter freundii E-9. The description is as above. In kind it is cell-based. As to the method: (§4) 10 ml of 2.5 folds diluted nutrient agar (pH 7.0) containing 50 μg/ml of penicillin G or cephaloridine was seeded with the β-lactamase producing and β-lactam-resistant microorganisms and poured in a 9 cm Petri dish to provide the bio-assay agar plate. On this assay plate, 8 mm of pulp discs each containing 20 μl of antibiotic PS-6 solution at the concentration of 240 μg/ml were placed and incubated at 35° C. for 18 hours before reading the inhibition zones. A control assay plate was similarly prepared without penicillin G or cephaloridine. As reference antibiotics, 10,000 μg/ml of penicillin G or 20 μl of cephaloridine were disc-assayed under the same conditions.

Data set [16] relates to Serratia marcescens S-18. The data set is described as above. The class given is cell-based. The protocol:
as §4

In data set [17] the test system is β-lactamase-producing, β-lactam-resistant bacteria. The experiment in a line: Increase of the antibiotic activity of other antibiotics (summary in words). In kind it is cell-based. The note with it: β-lactamase-producing bacteria such as Proteus vulgaris, Serratia marcescens. As to the method: as §2, §3
The mark [18] stands for this setting: Table 6, agar containing 50 μg/ml of cephaloridine, disc 20 μl, PS-6 240 μg/ml, reference antibiotics 10,000 μg/ml.
Where [19] appears, read: Table 6, agar containing 50 μg/ml of penicillin G, disc 20 μl, PS-6 240 μg/ml, reference antibiotics 10,000 μg/ml.

As to `CCC1C(=O)N2C(C(=O)OC(c3ccccc3)(c3ccccc3)c3ccccc3)=C(SC=CNC(C)=O)CC12` (stereo not drawn) [Antibiotic PS-7 trityl ester], the MIC in [1] (Table 10) was 1.34 µg/mL (≈ 2.49 µM); in [2] (Table 10) it was 6.25 µg/mL (≈ 11.6 µM); in data set [3] (Table 10), 0.16 µg/mL (≈ 0.297 µM); in data set [4] (Table 10, ester dissolved in methanol), 0.16 µg/mL (≈ 0.297 µM); in [5] (Table 10), 25 µg/mL (≈ 46.4 µM); in data set [11], 0.16 µg/mL (≈ 0.297 µM). Moreover, the MIC in data set [12] turned out to be 10 µg/mL (≈ 18.6 µM); in [13], 25 µg/mL (≈ 46.4 µM). For the same compound, the ED50 in [6] came to 4.5 mg/kg. Also, the “Therapeutic effect in infected mice” value in data set [6] was “marked therapeutic effect”. Moreover, the Acute toxicity entry in data set [7] is given as “no acute toxicity”. For the same compound, the Solubility in water entry in [8] is given as “Substantially insoluble”. The “Solubility in organic solvents” value in data set [8] is “Highly soluble in benzene ethyl acetate, chloroform, methanol, ethanol, acetone, dimethylformamide (DMF) and dimethylsulfoxide (DMSO); also recorded: Substantially insoluble in water and n-hexane”. For the same compound, the Stability entry in data set [9] is given as “more stable than antibiotic PS-6 or PS-7”. For the same compound, the “Antibiotic activity against Gram-negative bacteria of the genera Klebsiella, Proteus” value in data set [10] is “good activity”. In addition, the “Antibiotic activity against Gram-negative bacteria of the genus Alcaligenes (Comamonas)” value in data set [10] was “very strong activity”. Moreover, the “Antibiotic activity against Gram-negative bacteria resistant to β-lactam antibiotics” value in data set [10] was “strong activity”; in data set [10] (listed as trityl ester of antibiotic PS-7), “strong antibiotic activity”. The “Antibiotic activity against Gram-positive bacteria” value in [10] is on record as “very strong activity”.

With `CC1(C)S[C@@H]2[C@H](NC(=O)Cc3ccccc3)C(=O)N2[C@H]1C(=O)O` [penicillin G], in [14] (Proteus vulgaris, P5, 18 h, read-out: Diameter of inhibitory zone, No addition), the zone of inhibition at 10000 µg/mL was found to be 15 mm. For the same compound, the zone of inhibition at 240 µg/mL in data set [14] (Proteus vulgaris, P5, 18 h, read-out: Inhibition zone, Control) turned out to be 15 mm; in data set [15] (Citrobacter freundii, E9, 18 h, read-out: Inhibition zone, Control) it was 0 mm; in [16] (Serratia marcescens, S18, 18 h, read-out: Inhibition zone, Control), 0 mm. Besides, the “Inhibition zone, with cephaloridine” value in [14] (setting [18]) came to 15.0 mm; in data set [15] (setting [18]) it was 0.0 mm; in data set [16] (setting [18]) it was 0.0 mm. For the same compound, the “Inhibition zone, with penicillin G” value amounted to 15.0 mm in [14] (setting [19]), 0.0 mm in [15] (setting [19]) and 0.0 mm in data set [16] (setting [19]). Moreover, the “Diameter of inhibitory zone, Cephaloridine-added” value in data set [14] (Table 8, comparison disc 20 μl of 10,000 μg/ml, cephaloridine in the agar) was determined as 15.0 mm. For the same compound, the “Synergistic enhancement of the activity of penicillin G or cephaloridine (β-lactam antibiotics)” value was “no synergistic effect” in [17] and “No enhancement of antimicrobial activity” in data set [17] (listed as Penicillin G).

`CC(=O)NCCSC1=C(C(=O)OC(c2ccccc2)(c2ccccc2)c2ccccc2)N2C(=O)C(C(C)C)C2C1` (stereo not drawn) [Antibiotic PS-6 trityl ester]: the MIC is 1.34 µg/mL (≈ 2.42 µM) in [1] (Table 9); 12.5 µg/mL (≈ 22.5 µM) in data set [2] (Table 9); 0.33 µg/mL (≈ 0.595 µM) in [3] (Table 9); 0.33 µg/mL (≈ 0.595 µM) in data set [4] (Table 9, ester dissolved in methanol); 25 µg/mL (≈ 45.1 µM) in [5] (Table 9); 0.33 µg/mL (≈ 0.595 µM) in [11]. Moreover, the results for the MIC in data set [12] and in data set [13] were 20 µg/mL (≈ 36.1 µM) and 25 µg/mL (≈ 45.1 µM), respectively. Moreover, in data set [6], the ED50 was 5.5 mg/kg. The “Therapeutic effect in infected mice” value in data set [6] was “marked therapeutic effect”. In data set [7], the Acute toxicity entry is “no acute toxicity”. For the same compound, the Solubility in water result in [8] is reported as “Substantially insoluble”. Moreover, the “Solubility in organic solvents” value in [8] is “Substantially insoluble in water and n-hexane; also recorded: Highly soluble in benzene, ethyl acetate, chloroform, methanol, ethanol, acetone, dimethylformamide (DMF) and dimethylsulfoxide (DMSO)”. Besides, in data set [9], the Stability entry was “more stable than antibiotic PS-6 or PS-7”. In data set [10], the “Antibiotic activity against Gram-negative bacteria of the genera Klebsiella, Proteus” value is given as “good activity”. The “Antibiotic activity against Gram-negative bacteria of the genus Alcaligenes (Comamonas)” value in data set [10] is reported as “very strong activity”. In addition, the “Antibiotic activity against Gram-negative bacteria resistant to β-lactam antibiotics” value is recorded as “strong activity” in data set [10] and “strong antibiotic activity” in data set [10] (listed as trityl ester of antibiotic PS-6). In data set [10], the “Antibiotic activity against Gram-positive bacteria” value was “very strong activity”.
